In the supplement of paper PMC10307832:

Assays:
Assay in all cases: relative viability (nuclei count vs DMSO), 5 days (fraction); higher = more cells survive
[1] = compound: Cn1cc(-c2cnn3c(N)c(Br)c([C@@H]4CCCNC4)nc23)cn1 + CC1(C)CCC(c2ccc(Cl)cc2)=C(CN2CCN(c3ccc(C(=O)NS(=O)(=O)c4ccc(N[C@H](CCN5CCOCC5)CSc5ccccc5)c(S(=O)(=O)C(F)(F)F)c4)cc3)CC2)C1 [Navitoclax] (partner 0.5 µM)
Procedure, shortened: (§1)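 For relative viability, nuclei counts in treated wells were divided by those in vehicle wells. Lung cancer cell lines had been pin-tool dosed in 1536-well plates the day after seeding and cultured for 5 days, then fixed and stained in one step (final 0.05% Triton X-100, 1% formaldehyde, 1 ug/ml Hoechst) and imaged at 4×. Doses were one drug alone or a fixed anchor-drug dose plus five library-drug doses (not always all listed) in √10 steps, and values are duplicate-plate medians.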

[2] = compound: Cn1cc(-c2cnn3c(N)c(Br)c([C@@H]4CCCNC4)nc23)cn1 + CC(C)C[C@H](NC(=O)[C@H](Cc1ccccc1)NC(=O)c1cnccn1)B(O)O [Bortezomib] (partner 0.002 µM)
Procedure, shortened: as §1

[3] = compound: Cn1cc(-c2cnn3c(N)c(Br)c([C@@H]4CCCNC4)nc23)cn1 + Cc1nc(Nc2ncc(C(=O)Nc3c(C)cccc3Cl)s2)cc(N2CCN(CCO)CC2)n1 [Dasatinib] (partner 0.075 µM)
Procedure, shortened: as §1

[4] = compound: Cn1cc(-c2cnn3c(N)c(Br)c([C@@H]4CCCNC4)nc23)cn1 + CCNC(=O)c1noc(-c2cc(C(C)C)c(O)cc2O)c1-c1ccc(CN2CCOCC2)cc1 [Luminespib] (partner 0.01 µM)
Procedure, shortened: as §1

Cell Line | relative viability ([1]; first compound 0.05 µM) | relative viability ([1]; first compound 0.1581 µM) | relative viability ([1]; first compound 0.5 µM) | relative viability ([1]; first compound 1.581 µM) | relative viability ([1]; first compound 5 µM) | relative viability ([2]; first compound 0.05 µM) | relative viability ([2]; first compound 0.1581 µM) | relative viability ([2]; first compound 0.5 µM) | relative viability ([2]; first compound 1.581 µM) | relative viability ([2]; first compound 5 µM) | relative viability ([3]; first compound 0.05 µM) | relative viability ([3]; first compound 0.1581 µM) | relative viability ([3]; first compound 0.5 µM) | relative viability ([3]; first compound 1.581 µM) | relative viability ([3]; first compound 5 µM) | relative viability ([4]; first compound 0.05 µM) | relative viability ([4]; first compound 0.5 µM) | relative viability ([4]; first compound 1.581 µM) | relative viability ([4]; first compound 5 µM) | relative viability ([4]; first compound 0.1581 µM)
PC-14 | 1.06 | 1.14 | 0.924 | 0.69 | 0.444 | 0.936 | 0.971 | 0.83 | 0.549 | 0.355 | 0.272 | 0.203 | 0.196 | 0.113 | 0.063 | 0.179 | 0.179 | 0.159 | 0.165 | 
RERF-LC-KJ | 1.2 | 0.927 | 0.884 | 0.707 | 0.678 | 1.12 | 1.17 | 1.02 | 0.96 | 0.953 | 0.936 | 0.806 | 0.813 | 0.572 | 0.618 | 1.34 | 0.693 | 0.863 | 0.873 | 1.28
SK-LU-1 | 0.717 |  | 0.254 | 0.188 | 0.186 | 1.08 |  | 0.866 | 0.486 | 0.202 | 0.173 | 0.132 | 0.148 | 0.164 | 0.118 | 0.184 | 0.233 | 0.186 | 0.165 | 0.207
SW 1573 | 0.976 | 1.07 | 1.08 | 0.853 | 1.07 | 1.17 | 1.29 | 1.08 | 0.906 | 1.02 | 0.604 | 0.631 | 0.455 | 0.247 | 0.453 | 0.211 | 0.21 | 0.185 | 0.146 | 0.288
UMC-11 | 0.316 | 0.268 | 0.298 | 0.271 | 0.229 | 0.72 | 0.961 | 0.558 | 0.476 | 0.437 | 0.536 | 0.424 | 0.32 | 0.312 | 0.341 | 1.11 | 0.972 | 0.556 | 0.392 | 0.884
